Measured values taken from ChEMBL document CHEMBL4476883, “Hydroxy formamide derivatives and their use” (2017).
pIC50: −log10 of the molar value.

Experiments:
[1] = target: T1, Tolloid-like protein 2 (Homo sapiens, UniProt Q9Y6L7); assay: Inhibition of C-terminal Avi-6x-His epitope tagged and N-terminal human RAGE signal sequence tagged recombinant human TLL2 (26 to 1015 amino acids) expressed in CHOE1A cells incubated for 60 mins with promyostatin peptide substrate by FRET based assay; format: cell-based
T1 sequence (Q9Y6L7 whole entry): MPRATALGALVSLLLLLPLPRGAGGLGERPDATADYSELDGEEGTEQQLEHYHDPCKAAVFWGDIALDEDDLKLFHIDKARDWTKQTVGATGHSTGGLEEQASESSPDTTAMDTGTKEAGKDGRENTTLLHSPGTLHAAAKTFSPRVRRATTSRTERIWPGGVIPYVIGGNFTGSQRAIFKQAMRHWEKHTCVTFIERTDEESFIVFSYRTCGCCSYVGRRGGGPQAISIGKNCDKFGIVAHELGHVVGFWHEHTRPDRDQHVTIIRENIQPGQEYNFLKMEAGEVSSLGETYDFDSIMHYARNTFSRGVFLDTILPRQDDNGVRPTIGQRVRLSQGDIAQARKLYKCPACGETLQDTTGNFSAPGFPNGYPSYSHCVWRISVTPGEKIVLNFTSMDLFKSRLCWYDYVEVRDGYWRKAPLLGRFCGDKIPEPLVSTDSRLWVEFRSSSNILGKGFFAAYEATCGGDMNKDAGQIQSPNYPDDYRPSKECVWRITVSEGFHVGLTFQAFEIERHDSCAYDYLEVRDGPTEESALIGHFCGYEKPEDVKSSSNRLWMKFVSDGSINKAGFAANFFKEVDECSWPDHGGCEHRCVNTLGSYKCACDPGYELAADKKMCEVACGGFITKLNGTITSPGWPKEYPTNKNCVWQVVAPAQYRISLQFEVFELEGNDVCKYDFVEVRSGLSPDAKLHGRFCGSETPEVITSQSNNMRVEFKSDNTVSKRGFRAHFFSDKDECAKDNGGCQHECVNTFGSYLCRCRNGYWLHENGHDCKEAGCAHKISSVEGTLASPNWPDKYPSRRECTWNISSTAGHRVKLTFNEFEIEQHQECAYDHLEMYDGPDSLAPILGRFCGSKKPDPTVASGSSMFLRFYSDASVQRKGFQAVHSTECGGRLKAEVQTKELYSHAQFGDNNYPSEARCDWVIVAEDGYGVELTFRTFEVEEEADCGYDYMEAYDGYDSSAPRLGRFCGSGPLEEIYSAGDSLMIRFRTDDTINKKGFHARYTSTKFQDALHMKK

[2] = target: T2, Bone morphogenetic protein 1 (Homo sapiens, UniProt P13497); assay: Inhibition of C-terminal FLAG-6x-His epitope tagged and N-terminal human RAGE signal sequence tagged human BMP1 (23 to 721 amino acids) expressed in CHO-E1A cells pre-incubated for 10 mins before promyostatin peptide substrate addition and measured after 30 mins using 50 nM BMP1 by FRET based assay; format: cell-based
T2 sequence (P13497 whole entry): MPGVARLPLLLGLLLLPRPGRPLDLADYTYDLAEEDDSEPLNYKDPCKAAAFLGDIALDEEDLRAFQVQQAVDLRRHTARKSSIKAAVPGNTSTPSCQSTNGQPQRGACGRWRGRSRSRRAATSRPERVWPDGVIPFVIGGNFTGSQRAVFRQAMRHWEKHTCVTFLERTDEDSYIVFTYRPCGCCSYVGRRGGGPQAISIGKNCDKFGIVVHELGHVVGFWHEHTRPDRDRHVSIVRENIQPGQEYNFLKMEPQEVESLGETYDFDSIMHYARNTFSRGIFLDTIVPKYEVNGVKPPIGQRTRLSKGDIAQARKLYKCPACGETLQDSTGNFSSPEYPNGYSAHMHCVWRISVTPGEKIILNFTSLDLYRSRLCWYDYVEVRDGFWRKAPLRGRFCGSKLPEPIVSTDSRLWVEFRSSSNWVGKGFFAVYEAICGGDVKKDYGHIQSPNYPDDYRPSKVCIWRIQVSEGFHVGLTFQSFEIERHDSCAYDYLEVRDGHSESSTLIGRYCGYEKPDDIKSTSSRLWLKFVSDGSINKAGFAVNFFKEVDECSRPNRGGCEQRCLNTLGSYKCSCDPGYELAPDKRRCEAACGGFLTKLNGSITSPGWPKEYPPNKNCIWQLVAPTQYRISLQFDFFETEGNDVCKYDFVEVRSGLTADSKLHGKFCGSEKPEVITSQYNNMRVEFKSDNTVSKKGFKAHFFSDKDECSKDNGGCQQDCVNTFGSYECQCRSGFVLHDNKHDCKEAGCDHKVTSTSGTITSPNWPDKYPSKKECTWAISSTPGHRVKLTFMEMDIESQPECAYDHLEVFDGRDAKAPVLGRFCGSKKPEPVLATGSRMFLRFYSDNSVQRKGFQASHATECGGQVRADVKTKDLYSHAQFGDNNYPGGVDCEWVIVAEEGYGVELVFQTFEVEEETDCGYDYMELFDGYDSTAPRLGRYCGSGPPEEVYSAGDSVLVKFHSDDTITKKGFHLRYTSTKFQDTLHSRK

[3] = target: T2, Bone morphogenetic protein 1; assay: Inhibition of C-terminal FLAG-6x-His epitope tagged and N-terminal human RAGE signal sequence tagged human BMP1 (23 to 721 amino acids) expressed in CHO-E1A cells pre-incubated for 10 mins before promyostatin peptide substrate addition and measured after 60 mins using 0.5 nM BMP1 by FRET based assay; format: cell-based
[4] = Reduction in PICP levels in human cardiac fibroblasts incubated for 24 to 48 hrs by ELISA; format: functional
[5] = target: Tolloid-like protein 1 (Homo sapiens, UniProt O43897, I156V/N221S/V284A); assay: Inhibition of recombinant human TLL1 I156V/N221S/V284A mutant expressed in CHOE1A cells pre-incubated for 10 mins before promyostatin peptide substrate addition and measured after 60 mins by FRET based assay; format: cell-based
Chain of Tolloid-like protein 1 (O43897 148-1013 I156V/N221S/V284A limits assumed): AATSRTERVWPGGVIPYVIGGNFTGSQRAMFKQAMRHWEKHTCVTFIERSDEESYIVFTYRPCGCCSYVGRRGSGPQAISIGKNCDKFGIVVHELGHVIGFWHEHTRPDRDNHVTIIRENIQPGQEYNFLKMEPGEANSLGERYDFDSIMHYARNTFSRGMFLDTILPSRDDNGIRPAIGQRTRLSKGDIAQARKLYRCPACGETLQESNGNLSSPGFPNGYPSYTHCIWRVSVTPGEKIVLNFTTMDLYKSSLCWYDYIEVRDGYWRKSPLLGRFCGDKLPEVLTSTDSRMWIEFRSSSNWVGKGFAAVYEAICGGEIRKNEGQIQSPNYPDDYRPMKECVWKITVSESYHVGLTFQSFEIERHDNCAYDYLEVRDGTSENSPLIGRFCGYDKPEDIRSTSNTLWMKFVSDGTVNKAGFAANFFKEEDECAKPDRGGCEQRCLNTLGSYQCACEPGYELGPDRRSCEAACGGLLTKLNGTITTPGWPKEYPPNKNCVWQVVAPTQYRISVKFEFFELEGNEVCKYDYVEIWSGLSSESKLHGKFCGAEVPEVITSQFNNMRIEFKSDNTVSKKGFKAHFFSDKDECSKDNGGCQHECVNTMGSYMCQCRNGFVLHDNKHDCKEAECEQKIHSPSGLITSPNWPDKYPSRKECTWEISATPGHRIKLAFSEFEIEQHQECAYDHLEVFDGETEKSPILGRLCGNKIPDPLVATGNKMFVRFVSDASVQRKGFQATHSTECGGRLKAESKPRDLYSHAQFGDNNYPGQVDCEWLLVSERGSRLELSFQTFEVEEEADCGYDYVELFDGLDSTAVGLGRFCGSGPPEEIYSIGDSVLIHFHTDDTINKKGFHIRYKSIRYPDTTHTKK

SMILES | pIC50 [1] | pIC50 [2] | pIC50 [3] | pIC50 [5] | pIC50 [4]
COc1ccccc1-c1cccc(C(=O)NCNC(=O)[C@H](CC2CCCC2)CN(O)C=O)c1 | > 6.20 | > 6.60 | > 6.90 | > 6.40 | > 4.70
O=CN(O)C[C@@H](CC1CCCC1)C(=O)NCNC(=O)c1cccc(-c2cccc(O)c2)c1 | > 6.20 | > 6.60 | > 6.90 | > 6.40 | > 4.70
CCCCC[C@H](CN(O)C=O)C(=O)NCNC(=O)c1cccc(-c2ccc(F)cc2)n1 | > 6.20 | > 6.60 | > 6.90 | > 6.40 | > 4.70
COc1cc(OC)cc(-c2cccc(C(=O)NCNC(=O)[C@H](CC3CCCC3)CN(O)C=O)c2)c1 | > 6.20 | > 6.60 | > 6.90 | > 6.40 | > 4.70
CCCCC[C@@H](C(=O)NCNC(=O)c1cccc(-c2cc(OCC)cc(C(=O)O)c2)c1)[C@@H](CC)N(O)C=O | > 6.20 | > 6.60 | > 6.90 | > 6.40 | > 4.70
CCCCC[C@@H](C(=O)NCNC(=O)c1cccc(-c2ccc(C(=O)N[C@@H](CC(=O)O)C(=O)O)c(Cl)c2)n1)[C@@H](CC)N(O)C=O | > 6.20 | > 6.60 | > 6.90 | > 6.40 | > 4.70
CCCCC[C@@H](C(=O)NCNC(=O)c1cccc(-c2ccc(CC(=O)O)cc2)n1)[C@@H](CC)N(O)C=O | > 6.20 | > 6.60 | > 6.90 | > 6.40 | > 4.70
CCCCC[C@H](CN(O)C=O)C(=O)NCNC(=O)c1cccc(-c2cccc(OC(C)C)c2)c1 | > 6.20 | > 6.60 | > 6.90 | > 6.40 | > 4.70
CCCCC[C@@H](C(=O)NCNC(=O)c1cccc(-c2ccc(CC(=O)O)c(OCC)c2)n1)[C@@H](CC)N(O)C=O | > 6.20 | > 6.60 | > 6.90 | > 6.40 | > 4.70
CCCCC[C@H](CN(O)C=O)C(=O)NCNC(=O)c1cccc(-c2cccc(OC)c2)n1 | > 6.20 | > 6.60 | > 6.90 | > 6.40 | > 4.70
CCCCC[C@H](CN(O)C=O)C(=O)NCNC(=O)c1cccc(-c2cccc(OC)c2)c1F | > 6.20 | > 6.60 | > 6.90 | > 6.40 | > 4.70
CCCCC[C@@H](C(=O)NCNC(=O)c1cccc(-c2ccc(C(=O)N[C@@H](CC(=O)O)C(=O)O)c(C)c2)n1)[C@@H](CC)N(O)C=O | > 6.20 | > 6.60 | > 6.90 | > 6.40 | > 4.70
CCCCC[C@@H](C(=O)NCNC(=O)c1cccc(-c2ccc(C(C)(C)C(=O)O)cc2)n1)[C@@H](CC)N(O)C=O | > 6.20 | > 6.60 | > 6.90 | > 6.40 | > 4.70
O=CN(O)C[C@@H](CC1CCCC1)C(=O)NCNC(=O)c1cccc(-c2ccccc2)c1 | > 6.20 | > 6.60 | > 6.90 | > 6.40 | > 4.70
CCCCC[C@@H](C(=O)NCNC(=O)c1cccc(-c2ccc(P(=O)(O)O)c(OCC)c2)c1)[C@@H](CC)N(O)C=O | > 6.20 | > 6.60 | > 6.90 | > 6.40 | > 4.70
O=CN(O)C[C@@H](CC1CCCC1)C(=O)NCNC(=O)c1cccc(-c2cccc(OC(F)(F)F)c2)c1 | > 6.20 | > 6.60 | > 6.90 | > 6.40 | > 4.70

More lines, main results first:

pIC50 [1] | pIC50 [2] | pIC50 [3] | pIC50 [5] | SMILES | pIC50 [4]
> 6.20 | > 6.60 | > 6.90 | > 6.40 | CCCCC[C@@H](C(=O)NCNC(=O)c1cccc(-c2ccc(C(=O)N[C@@H](CC(=O)O)C(=O)O)c(OCC(=O)O)c2)n1)[C@@H](CC)N(O)C=O | > 4.70
> 6.20 | > 6.60 | > 6.90 | > 6.40 | CCCCC[C@H](CN(O)C=O)C(=O)NCNC(=O)c1cccc(-c2ccnn2CC)c1 | > 4.70
> 6.20 | > 6.60 | > 6.90 | > 6.40 | CCCCC[C@@H](C(=O)NCNC(=O)c1cccc(-c2ccc(F)c(C(=O)O)c2)n1)[C@@H](CC)N(O)C=O | > 4.70
> 6.20 | > 6.60 | > 6.90 | > 6.40 | CCCCC[C@H](CN(O)C=O)C(=O)NCNC(=O)c1cccc(-c2ccc(F)cc2)c1 | > 4.70
> 6.20 | > 6.60 | > 6.90 | > 6.40 | CCCCC[C@@H](C(=O)NCNC(=O)c1cccc(-c2ccc(C(=O)N[C@@H](CC(=O)O)C(=O)O)cc2)n1)[C@@H](CC)N(O)C=O | > 4.70
> 6.20 | > 6.60 | > 6.90 | > 6.40 | CCCCC[C@@H](C(=O)NCNC(=O)c1cccc(-c2ccc(C(=O)NCP(=O)(O)O)c(O)c2)n1)[C@@H](CC)N(O)C=O | > 4.70
> 6.20 | > 6.60 | > 6.90 | > 6.40 | CCCCC[C@H](CN(O)C=O)C(=O)NCNC(=O)c1cccc(-c2cnc(C)o2)c1 | > 4.70
> 6.20 | > 6.60 | > 6.90 | > 6.40 | O=CN(O)C[C@@H](CCc1ccccc1)C(=O)NCNC(=O)c1cccc(-c2ccccc2)n1 | > 4.70
> 6.20 | > 6.60 | > 6.90 | > 6.40 | CCCCC[C@@H](C(=O)NCNC(=O)c1cccc(-c2ccc(C(=O)NCP(=O)(O)O)c(C)c2)n1)[C@@H](CC)N(O)C=O | > 4.70
> 6.20 | > 6.60 | > 6.90 | > 6.40 | CCCCC[C@@H](C(=O)NCNC(=O)c1cccc(-c2cccc(C(=O)O)c2C)n1)[C@@H](CC)N(O)C=O | > 4.70
> 6.20 | > 6.60 | > 6.90 | > 6.40 | CCCCC[C@H](CN(O)C=O)C(=O)NCNC(=O)c1cccc(-c2ccc(OC)cc2)c1 | > 4.70
> 6.20 | > 6.60 | > 6.90 | > 6.40 | CCCCC[C@H](CN(O)C=O)C(=O)NCNC(=O)c1cccc(-c2ccnc(OC)n2)c1 | > 4.70
